These results are taken from patent publication US12303509B2, “Compounds for the treatment of BRAF-associated diseases and disorders” (Pfizer Inc., priority 2020, dated 2025).

In assay [1] the test system is NCI-H1666 (BRAF G466V) cells. Nature of the assay: Cellular phospho-ERK inhibition assay in NCI-H1666 cells. Type of assay: cell-based. The conditions noted are these: Homo sapiens, 1 hour treatment, read-out: IC50 NCI-H1666 pERK. As for the experimental part:
The compounds of Example 13, Example 14 and Example 126 were evaluated in a phospho-ERK assay in two mutant BRAF Class III cell lines: NCI-H1666 (BRAF^G466V) and WM3629 cells (BRAF^D594G/NRAS^G12D). NCI-H1666 cells were obtained from the American Type Culture Collection (ATCC, Rockville, MD) and WM3629 cells were obtained from Rockland Immunochemicals (Limerick, PA). Cells were maintained in RPMI growth medium containing 10% FBS.
Cells were harvested according to standard protocols, counted, and plated onto flat-bottom, 96-well tissue culture plates (Costar #3599) at 2.5×10^4 cells/well in 100 μL/well of growth medium containing 10% FBS. After an overnight incubation at 37° C. with 5% CO2 cells were treated for 1 hour at 37° C., 5% CO2 with inhibitors prepared as a 9-point, 1:3.33 fold dilution series with final compound concentrations ranging from 66 pM-10 μM and a constant DMSO concentration of 0.25%. Control wells contained either 0.25% DMSO alone (uninhibited control) or 10 μM binimetinib (complete inhibition control). The levels of phosphorylated ERK were determined using an In Cell Western protocol: following compound incubation, growth medium was discarded, and cells were fixed with 0.4% formaldehyde in PBS for 20 minutes at room temperature. Cells were permeabilized with 100% methanol for 10 minutes at room temperature. Plates were washed with PBS containing 0.05% Tween-20 and blocked for 1 hour at room temperature with LI-COR Blocking Buffer (LI-COR Biosciences; Cat. #927-40000). Plates were then incubated for 2 hours at room temperature with 50 μL of a 1:400 dilution of anti-phospho-ERK1/2 (Thr202/Tyr204) (Cell Signaling; Cat. #9101) and a 1:1000 dilution of anti-GAPDH (Millipore; Cat. #MAB374) in LI-COR blocking buffer containing 0.05% Tween-20. […] Plates were analyzed by reading on an Odyssey CLx infrared scanner. […]
[formula] • Where: • Xmax d Average Uninhibited Controls • Xmin Average Complete Inhibition Controls • IC50 values were then calculated using a 4-parameter fit in XLfit software and are shown in Table A2.

Another assay deals with A375 cells. Nature of the assay: Cellular phospho-ERK inhibition assay in A375 cells. Type of assay: cell-based. The conditions noted are these: Homo sapiens, A-375, A375 cells (head prints A357), 2 hours treatment, read-out: A357 cell IC50. A digest of the protocol: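 A375 (DMEM) or H1755 (RPMI) cells in 10% FBS treated 2 h at 37 °C with 9-point series, 66 pM–10 μM, 0.25% DMSO. Phospho-ERK1/2 (Thr202/Tyr204) measured by In Cell Western, normalised to GAPDH and to DMSO and 10 μM binimetinib controls; IC50 by 4-parameter fit.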

In the case of `Cn1cnc2ccc(Nc3c(F)ccc(NS(=O)(=O)N4CC5CC4C5)c3Cl)c(F)c2c1=O` [Example 13, N-(2-chloro-4-fluoro-3-((5-fluoro-3-methyl-4-oxo-3,4-dihydroquinazolin-6-yl)amino)phenyl)-2-azabicyclo[2.1.1]hexane-2-sulfonamide], the values for the 50% inhibitory concentration (IC50) (in assay [1]; with A375 cells) were 15 nM and 6 nM, respectively.
For the compound `Cn1cnc2ccc(Nc3c(F)ccc(NS(=O)(=O)N4CC[C@@H](F)C4)c3Cl)c(F)c2c1=O` [Example 14, (R)-N-(2-chloro-4-fluoro-3-((5-fluoro-3-methyl-4-oxo-3,4-dihydroquinazolin-6-yl)amino)phenyl)-3-fluoropyrrolidine-1-sulfonamide], the figures for the 50% inhibitory concentration (IC50) (in assay [1]; with A375 cells) were 7.1 nM and 3 nM, respectively.
